What was measured:
Squalene synthase = target: T1, Squalene synthase (Rattus norvegicus, UniProt Q02769); test: Inhibition of squalene synthase (formation of squalene from tritiated farnesyl pyrophosphate, rat liver microsomes); type: biochemical; conditions: rat liver microsomal protein; 20 μM 1-[3H]-farnesyl pyrophosphate; 15 minutes; 37° C.; read-out: IC50 (concentration which results in a 50% inhibition of squalene production)
T1 construct: rat liver microsomal protein; from tissue; host or cells: rat liver microsomes
T1 sequence (Q02769 1-416): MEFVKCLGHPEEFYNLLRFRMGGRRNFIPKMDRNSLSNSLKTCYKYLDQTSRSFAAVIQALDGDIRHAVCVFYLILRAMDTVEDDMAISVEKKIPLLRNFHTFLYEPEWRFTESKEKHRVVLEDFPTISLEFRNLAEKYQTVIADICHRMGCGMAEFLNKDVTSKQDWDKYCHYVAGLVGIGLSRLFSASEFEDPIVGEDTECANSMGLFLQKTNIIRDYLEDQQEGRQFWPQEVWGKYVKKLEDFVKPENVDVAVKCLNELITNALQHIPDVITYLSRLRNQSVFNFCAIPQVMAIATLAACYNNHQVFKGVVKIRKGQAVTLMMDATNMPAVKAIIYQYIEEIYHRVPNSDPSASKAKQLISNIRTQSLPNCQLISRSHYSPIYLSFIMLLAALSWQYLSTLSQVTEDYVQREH
Procedure: (a) Inhibition of Squalene synthase
In this test, the ability of a compound to prevent the formation of squalene from a radioactive substrate (tritiated farnesyl pyrophosphate) is assessed.
The test compound is incubated at a concentration of 25 micromolar in 200 μl of a buffered solution containing potassium phosphate (50 mM), MgCl2 (4.95 mM), KF (9.9 mM), NADPH (0.9 mM) and rat liver microsomal protein (20 μg). Rat liver microsomes are prepared by the method described in published European Patent Application No. 324,421 and stored in liquid nitrogen prior to assay. Assay vials are kept at 37° C. throughout the incubation.
The reaction is started with the addition of the substrate (1-[^3 H]-farnesyl pyrophosphate), final concentration 20 μM, and stopped after 15 minutes reaction time with the addition of 50 μl of 4% KOH. The reaction products are separated from unreacted substrate after application to a C-18 octadecyl 1ccBond column (Analytichem Int product No. 617101). An aqueous fraction is eluted with 250 μl of 0.1M KOH. Squalene is then eluted with 1.0 ml 10% ethyl acetate in hexane and radioactivity determined. The difference in radioactivity in the presence and absence of the test compound is used to determine the level of inhibition. […] The IC50 can then be determined from a plot of percentage inhibition against concentration of test compound.

[1] = test system: de novo hepatic cholesterol synthesis; test: Acute rat cholesterol synthesis assay (de novo hepatic cholesterol synthesis from 14C-acetate); type: in vivo; conditions: female rats, oral gavage, ip or iv (route not given), 14C-acetate ip 1 hour after dosing
Procedure: (b) Acute rat cholesterol synthesis assay.
This is an acute in vivo test in the rat to measure de novo hepatic cholesterol synthesis from exogenously administered ^14 C-acetate.
Female rats (35-55 g) are housed in reverse lighting conditions (red light from 0200h-1400h) for a period of about 2 weeks prior to test. Animals are allowed free access to chow and drinking water throughout this period. At test, animals should weigh 125-150 g.
Test compounds may be administered by oral gavage, dissolved or suspended in 0.5% polysorbate, or by ip or iv dosing. Control animals receive vehicle alone. After 1 hour the rats are injected ip with 25 μCi [2-^14 C]-acetate (NEN DUPONT. specific activity, 45-60 mCi/mmol NEC-085H, or AMERSHAM specific activity, 50-60 mCi/mmol CFA 14) in a volume of 0.25 ml saline (100 μCi/ml). After a further hour, rats are terminally anaesthetised with halothane and a blood sample obtained from the abdominal vena cava.
1 ml of plasma is lyophilised and then saponified in 2 ml ethanolic KOH (1 part 33% KOH, 9 parts ethanol) at 75° C. for 2 hours. After addition of an equal quantity of water, non-saponifiable lipids are extracted with two 5 ml volumes of hexane. The hexane extracts are evaporated to dryness and the residues dissolved in ethanol to determine cholesterol specific radioactivity. EC50 values can be determined in the standard way.

Row | SMILES | IC50 (Squalene synthase) [nM] | ED50 [1] [mg/kg]
1 | c1ccc(-c2ccc(CNC3CN4CCC3CC4)cc2)cc1 (centres unmarked) [Example 5, 3-[(biphenyl-4-ylmethyl)amino]quinuclidine] | 140 | 
2 | Oc1ccc(-c2ccc(OCC3(O)CN4CCC3CC4)cc2)cc1 (centres unmarked) [Example 17, 3-(4'-hydroxybiphenyl-4-yloxymethyl)quinuclidin-3-ol] |  | 11

From patent US5654315A, “Quinuclidine compounds useful in treating diseases” (Imperial Chemical Industries PLC, priority 1991, dated 1997)
